Experimental data published in patent US20220024906A1, “COMPOUNDS AND COMPOSITIONS FOR TREATING CONDITIONS ASSOCIATED WITH STING ACTIVITY” (IFM Due, Inc., priority 2020, published 2022).

Molecular target: T1, hSTING (Homo sapiens, UniProt Q86WV6, G230A/H232R/R293Q/R71H)
T1 construct: host or cells: THP1-Dual KO-IFNAR2 cells
Test: STING reporter assay (luciferase) in THP1-Dual KO-IFNAR2 cells stimulated with 2′3′cGAMP
Type: cell-based
Conditions: 15 μM 2′3′cGAMP transfected, 24 h, luciferase reporter activity
Description: STING pathway activation by the compounds described herein was measured using THP1-Dual™ cells (KO-IFNAR2).
THP1-Dual™ KO-IFNAR2 Cells (obtained from invivogen) were maintained in RPMI, 10% FCS, 5 ml P/S, 2 mM L-glut, 10 mM Hepes, and 1 mM sodium pyruvate. Compounds were spotted in empty 384 well tissue culture plates (Greiner 781182) by Echo for a final concentration of 0.0017-100 μM. Cells were plated into the TC plates at 40 μL per well, 2×10E6 cells/mL. For activation with STING ligand, 2′3′cGAMP (MW 718.38, obtained from Invivogen), was prepared in Optimem media.
The following solutions were prepared for each 1×384 plate: • Solution A: 2 mL Optimem with one of the following stimuli: • 60 μL of 10 mM 2′3′cGAMP→150 μM stock • Solution B: 2 mL Optimem with 60 μL Lipofectamine 2000→Incubate 5 min at RT
2 mL of solution A and 2 ml Solution B was mixed and incubated for 20 min at room temperature (RT). 20 μL of transfection solution (A+B) was added on top of the plated cells, with a final 2′3′cGAMP concentration of 15 μM. The plates were then centrifuged immediately at 340 g for 1 minute, after which they were incubated at 37° C., 5% CO2, >98% humidity for 24 h. Luciferase reporter activity was then measured. EC50 values were calculated by using standard methods known in the art.
Luciferase reporter assay: 10 μL of supernatant from the assay was transferred to white 384-plate with flat bottom and squared wells. One pouch of QUANTI-Luc™ Plus was dissolved in 25 mL of water. 100 μL of QLC Stabilizer per 25 mL of QUANTI-Luc™ Plus solution was added. 50 μL of QUANTI-Luc™ Plus/QLC solution per well was then added. Luminescence was measured on a Platereader (e.g., Spectramax I3X (Molecular Devices GF3637001)).
Luciferase reporter activity was then measured. EC50 values were calculated by using standard methods known in the art.

T1 sequence (Q86WV6 whole entry R71H/G230A/H232R/R293Q): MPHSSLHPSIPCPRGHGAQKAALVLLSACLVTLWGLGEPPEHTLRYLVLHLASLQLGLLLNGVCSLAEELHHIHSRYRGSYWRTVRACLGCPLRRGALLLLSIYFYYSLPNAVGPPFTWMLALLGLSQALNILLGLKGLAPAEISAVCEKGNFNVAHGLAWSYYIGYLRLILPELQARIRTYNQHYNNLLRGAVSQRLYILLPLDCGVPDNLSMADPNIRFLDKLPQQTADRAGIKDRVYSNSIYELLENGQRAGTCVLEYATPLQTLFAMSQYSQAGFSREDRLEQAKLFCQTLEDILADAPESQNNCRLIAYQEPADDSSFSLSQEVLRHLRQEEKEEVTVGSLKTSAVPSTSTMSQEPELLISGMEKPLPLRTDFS

SMILES	EC50 [nM]
CC(Oc1ccc(OC(F)(F)F)cc1)C(=O)Nc1c[nH]c2cc(F)c(F)cc12 (stereo not drawn) [Compound 130, N-(5,6-difluoro-1H-indol-3-yl)-2-(4-(trifluoromethoxy)phenoxy)propanamide]	1000 to 5000
COc1cccc(N2CC(C(=O)Nc3c[nH]c4cc(F)c(F)cc34)CC2=O)c1 (stereo not drawn) [Compound 112, N-(5,6-difluoro-1H-indol-3-yl)-1-(3-methoxyphenyl)-5-oxopyrrolidine-3-carboxamide]	5000 to 100000
O=C(Cc1ccc(OC(F)(F)F)cc1)Nc1c[nH]c2cc(F)c(F)cc12 [Compound 129, N-(5,6-difluoro-1H-indol-3-yl)-2-(4-(trifluoromethoxy)phenyl)acetamide]	1000 to 5000
Cn1ccc(CC(=O)Nc2c[nH]c3ccc(-c4cnn(-c5ccc(C(F)(F)F)cc5)c4)cc23)n1 [Compound 168, 2-(1-methyl-1H-pyrazol-3-yl)-N-(5-(1-(4-(trifluoromethyl)phenyl)-1H-pyrazol-4-yl)-1H-indol-3-yl)acetamide]	200 to 1000
O=C(Nc1c[nH]c2cc(F)c(F)cc12)[C@H]1CCN(C(=O)OCc2ccccc2)C1 [Compound 115, benzyl (S)-3-((5,6-difluoro-1H-indol-3-yl)carbamoyl)pyrrolidine-1-carboxylate]	5000 to 100000
Cc1cc(CC(=O)Nc2c[nH]c3cc(F)c(F)cc23)cnc1N1CCC(F)(F)CC1 [Compound 126, N-(5,6-difluoro-1H-indol-3-yl)-2-(6-(4,4-difluoropiperidin-1-yl)-5-methylpyridin-3-yl)acetamide]	1000 to 5000
COc1ccc(CCC(=O)Nc2c[nH]c3cc(F)c(F)cc23)cn1 [Compound 116, N-(5,6-difluoro-1H-indol-3-yl)-3-(6-methoxypyridin-3-yl)propanamide]	5000 to 100000
O=C(CCc1cnoc1)Nc1c[nH]c2ccc(-c3cnn(-c4ccc(C(F)(F)F)cc4)c3)cc12 [Compound 139, 3-(isoxazol-4-yl)-N-(5-(1-(4-(trifluoromethyl)phenyl)-1H-pyrazol-4-yl)-1H-indol-3-yl)propanamide]	200 to 1000
C/C(=C\c1ccccn1)C(=O)Nc1c[nH]c2cc(F)c(F)cc12 [Compound 109, (E)-N-(5,6-difluoro-1H-indol-3-yl)-2-methyl-3-(pyridin-2-yl)acrylamide]	1000 to 5000
Cn1cc(CC(=O)Nc2c[nH]c3ccc(-c4cnn(-c5ccc(C(F)(F)F)cc5)c4)cc23)cn1 [Compound 146, 2-(1-methyl-1H-pyrazol-4-yl)-N-(5-(1-(4-(trifluoromethyl)phenyl)-1H-pyrazol-4-yl)-1H-indol-3-yl)acetamide]	200 to 1000
O=C(Nc1c[nH]c2ccc(-c3cnn(-c4ccc(C(F)(F)F)cc4)c3)cc12)[C@@H](O)C1CCCCC1 [Compound 152, (S)-2-cyclohexyl-2-hydroxy-N-(5-(1-(4-(trifluoromethyl)phenyl)-1H-pyrazol-4-yl)-1H-indol-3-yl)acetamide]	1000 to 5000
CCOc1cccc(CCC(=O)Nc2c[nH]c3cc(F)c(F)cc23)c1 [Compound 106, N-(5,6-difluoro-1H-indol-3-yl)-3-(3-ethoxyphenyl)propanamide]	200 to 1000
NC1(CC(=O)Nc2c[nH]c3ccc(-c4cnn(-c5ccc(C(F)(F)F)cc5)c4)cc23)CCCCC1 [Compound 151, 2-(1-aminocyclohexyl)-N-(5-(1-(4-(trifluoromethyl)phenyl)-1H-pyrazol-4-yl)-1H-indol-3-yl)acetamide]	1000 to 5000
O=C(Cc1ncc(F)cn1)Nc1c[nH]c2ccc(-c3cnn(-c4ccc(C(F)(F)F)cc4)c3)cc12 [Compound 145, 2-(5-fluoropyrimidin-2-yl)-N-(5-(1-(4-(trifluoromethyl)phenyl)-1H-pyrazol-4-yl)-1H-indol-3-yl)acetamide]	200 to 1000
O=C(CC1(O)CCC1)Nc1c[nH]c2ccc(-c3cnn(-c4ccc(C(F)(F)F)cc4)c3)cc12 [Compound 162, 2-(1-hydroxycyclobutyl)-N-(5-(1-(4-(trifluoromethyl)phenyl)-1H-pyrazol-4-yl)-1H-indol-3yl)acetamide]	200 to 1000
Cn1cnnc1CCC(=O)Nc1c[nH]c2ccc(-c3cnn(-c4ccc(C(F)(F)F)cc4)c3)cc12 [Compound 153, 3-(4-methyl-4H-1,2,4-triazol-3-yl)-N-(5-(1-(4-(trifluoromethyl)phenyl)-1H-pyrazol-4-yl)-1H-indol-3-yl)propanamide]	1000 to 5000
Cc1ccc(OC(C)(C)C(=O)Nc2c[nH]c3cc(F)c(F)cc23)nc1 [Compound 105, N-(5,6-difluoro-1H-indol-3-yl)-2-methyl-2-((5-methylpyridin-2-yl)oxy)propanamide]	5000 to 100000

SMILES	EC50 [nM]
C[C@H](C(=O)Nc1c[nH]c2ccc(-c3cnn(-c4ccc(C(F)(F)F)cc4)c3)cc12)N1CCCC1=O [Compound 156, (R)-2-(2-oxopyrrolidin-1-yl)-N-(5-(1-(4-(trifluoromethyl)phenyl)-1H-pyrazol-4-yl)-1H-indol-3-yl)propanamide]	1000 to 5000
O=C(Nc1c[nH]c2cc(F)c(F)cc12)C1CC(Oc2ccccc2)C1 (stereo not drawn) [Compound 114, N-(5,6-difluoro-1H-indol-3-yl)-3-phenoxycyclobutane-1-carboxamide]	1000 to 5000
CC(C)(Oc1ccc(F)cc1)C(=O)Nc1c[nH]c2cc(F)c(F)cc12 [Compound 134, N-(5,6-difluoro-1H-indol-3-yl)-2-(4-fluorophenoxy)-2-methylpropanamide]	5000 to 100000
COc1cccc(CCC(=O)Nc2c[nH]c3cc(F)c(F)cc23)n1 [Compound 108, N-(5,6-difluoro-1H-indol-3-yl)-3-(6-methoxypyridin-2-yl)propanamide]	5000 to 100000
CCOc1ccc(CC(=O)Nc2c[nH]c3cc(F)c(F)cc23)cc1C(F)(F)F [Compound 103, N-(5,6-difluoro-1H-indol-3-yl)-2-(4-ethoxy-3-(trifluoromethyl)phenyl)acetamide]	1000 to 5000
Cc1nc(CC(=O)Nc2c[nH]c3ccc(-c4cnn(-c5ccc(C(F)(F)F)cc5)c4)cc23)cs1 [Compound 165, 2-(2-methylthiazol-4-yl)-N-(5-(1-(4-(trifluoromethyl)phenyl)-1H-pyrazol-4-yl)-1H-indol-3-yl)acetamide]	200 to 1000
O=C(/C=C/c1ccc(OC(F)(F)F)cc1)Nc1c[nH]c2cc(F)c(F)cc12 [Compound 136, (E)-N-(5,6-difluoro-1H-indol-3-yl)-3-(4-(trifluoromethoxy)phenyl)acrylamide]	200 to 1000
O=C(Cc1ncc[nH]1)Nc1c[nH]c2ccc(-c3cnn(-c4ccc(C(F)(F)F)cc4)c3)cc12 [Compound 149, 2-(1H-imidazol-2-yl)-N-(5(1-(4-(trifluoromethyl)phenyl)-1H-pyrazol-4-yl)-1H-indol-3-yl)acetamide]	5000 to 100000
Cc1ccc(OCCC(=O)Nc2c[nH]c3cc(F)c(F)cc23)cc1 [Compound 120, N-(5,6-difluoro-1H-indol-3-yl)-3-(p-tolyloxy)propanamide]	200 to 1000
O=C(CCc1nccs1)Nc1c[nH]c2ccc(-c3cnn(-c4ccc(C(F)(F)F)cc4)c3)cc12 [Compound 148, 3-(thiazol-2-yl)-N-(5-(1-(4-(trifluoromethyl)phenyl)-1H-pyrazol-4-yl)-1H-indol-3-yl)propanamide]	200 to 1000
O=C(CCc1ccc(C(F)(F)F)nc1)Nc1c[nH]c2cc(F)c(F)cc12 [Compound 117, N-(5,6-difluoro-1H-indol-3-yl)-3-(6-(trifluoromethyl)pyridin-3-yl)propanamide]	1000 to 5000
O=C(Cc1nnn[nH]1)Nc1c[nH]c2ccc(-c3cnn(-c4ccc(C(F)(F)F)cc4)c3)cc12 [Compound 141, 2-(1H-tetrazol-5-yl)-N-(5-(1-(4-(trifluoromethyl)phenyl)-1H-pyrazol-4-yl)-1H-indol-3-yl)acetamide]	5000 to 100000
O=C(CN1CCCC1=O)Nc1c[nH]c2ccc(-c3cnn(-c4ccc(C(F)(F)F)cc4)c3)cc12 [Compound 166, 2-(2-oxopyrrolidin-1-yl)-N-(5-(1-(4-(trifluoromethyl)phenyl)-1H-pyrazol-4-yl)-1H-indol-3-yl)acetamide]	1000 to 5000
O=C(CCn1ccnc1)Nc1c[nH]c2ccc(-c3cnn(-c4ccc(C(F)(F)F)cc4)c3)cc12 [Compound 142, 3-(1H-imidazol-1-yl)-N-(5-(1-(4-(trifluoromethyl)phenyl)-1H-pyrazol-4-yl)-1H-indol-3-yl)propanamide]	200 to 1000
COc1ccc(CC(C)(C)C(=O)Nc2c[nH]c3cc(F)c(F)cc23)cc1 [Compound 133, N-(5,6-difluoro-1H-indol-3-yl)-3-(4-methoxyphenyl)-2,2-dimethylpropanamide]	5000 to 100000
O=C(CCc1cn[nH]c1)Nc1c[nH]c2ccc(-c3cnn(-c4ccc(C(F)(F)F)cc4)c3)cc12 [Compound 140, 3-(1H-pyrazol-4-yl)-N-(5-(1-(4-(trifluoromethyl)phenyl)-1H-pyrazo1-4-yl)-1H-indol-3-yl)propanamide]	200 to 1000
